The values below come from PubChem BioAssay AID256 (DTP/NCI, 2004).

Each structure is given as a SMILES string. Several values for one entry are separate records, joined by “and”; a condition that tells them apart may be missing. Equal entries are not always repeated. Toxic doses and inconclusive results are not listed.

This assay relates to CD2F1 mice, L1210 leukemia ip, survival T/C. Description: NCI In Vivo Anticancer Drug Screen. Data for tumor model L1210 Leukemia (intraperitoneal) in CD2F1 (CDF1) mice. As to conditions: higher = longer survival. The essentials:
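Mice carrying a transplanted tumor received test compound or vehicle alone. The value is the measurement in the treated group divided by that in the vehicle-treated control group.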

[1] abbreviates: endpoint: mean survival time, dose: 100.0 mg/kg/injection, schedule: Q01DX009 (ip), vehicle: saline.
The mark [2] stands for this setting: endpoint: mean survival time, dose: 100.0 mg/kg/injection, schedule: Q04DX003 (ip), vehicle: saline.
Setting [3] is: endpoint: mean survival time, dose: 200.0 mg/kg/injection, schedule: Q01DX009 (ip), vehicle: saline.
Setting [4] is: endpoint: mean survival time, dose: 200.0 mg/kg/injection, schedule: Q04DX003 (ip), vehicle: saline.
The mark [5] stands for this setting: endpoint: mean survival time, dose: 400.0 mg/kg/injection, schedule: Q01DX009 (ip), vehicle: saline.
[6] abbreviates: endpoint: mean survival time, dose: 25.0 mg/kg/injection, schedule: Q01DX009 (ip), vehicle: saline with Tween-80.
Setting [7] is: endpoint: mean survival time, dose: 25.0 mg/kg/injection, schedule: Q04DX003 (ip), vehicle: saline with Tween-80.
Where [8] appears, read: endpoint: mean survival time, dose: 50.0 mg/kg/injection, schedule: Q01DX009 (ip), vehicle: saline with Tween-80.
[9] abbreviates: endpoint: mean survival time, dose: 50.0 mg/kg/injection, schedule: Q04DX003 (ip), vehicle: saline with Tween-80.
[10] abbreviates: endpoint: mean survival time, dose: 200.0 mg/kg/injection, schedule: Q01DX009 (ip), vehicle: saline with Tween-80.
The mark [11] stands for this setting: endpoint: mean survival time, dose: 100.0 mg/kg/injection, schedule: Q01DX009 (ip), vehicle: saline with Tween-80.

`O=c1[nH]cc(N=Cc2ccccc2Cl)c(=O)[nH]1.[Cl][Pt][Cl]`: the T/C is 94 % of control (endpoint: mean survival time, dose: 3.13 mg/kg/injection, schedule: Q04DX003 (ip), vehicle: distilled water + Tween-80); 97 % of control (endpoint: mean survival time, dose: 6.25 mg/kg/injection, schedule: Q04DX003 (ip), vehicle: distilled water + Tween-80); 88 % of control (endpoint: mean survival time, dose: 12.5 mg/kg/injection, schedule: Q04DX003 (ip), vehicle: distilled water + Tween-80); 96 % of control (endpoint: mean survival time, dose: 25.0 mg/kg/injection, schedule: Q04DX003 (ip), vehicle: distilled water + Tween-80); 96 % of control (endpoint: mean survival time, dose: 50.0 mg/kg/injection, schedule: Q04DX003 (ip), vehicle: distilled water + Tween-80); 103 % of control (endpoint: mean survival time, dose: 100.0 mg/kg/injection, schedule: Q04DX003 (ip), vehicle: distilled water + Tween-80). Also, where the note is “endpoint: mean survival time, dose: 200.0 mg/kg/injection, schedule: Q04DX003 (ip), vehicle: distilled water + Tween-80”, the T/C is 94 % of control.

Turning to `CCOC(=O)c1cnc[nH]1`, the T/C is, setting by setting: (endpoint: mean survival time, dose: 100.0 mg/kg/injection, schedule: Q04DX002 (ip), vehicle: saline with Tween-80) 103 % of control; (endpoint: mean survival time, dose: 200.0 mg/kg/injection, schedule: Q04DX002 (ip), vehicle: saline with Tween-80) 95 % of control; (endpoint: mean survival time, dose: 400.0 mg/kg/injection, schedule: Q04DX002 (ip), vehicle: saline with Tween-80) 103 % of control.

In the case of `OCCN1CCOCC1`, the T/C is 103 % of control under setting [1]; 98 % of control under setting [2]; 102 % of control under setting [3]; 95 % of control under setting [4]; 103 % of control under setting [5]; 97 % of control (endpoint: mean survival time, dose: 400.0 mg/kg/injection, schedule: Q04DX003 (ip), vehicle: saline).

For `[NH-]C(CO)C(=O)O.[NH-]C(CO)C(=O)O.[Pt+2]` (configuration not stated), the T/C is, setting by setting: (endpoint: mean survival time, dose: 0.78 mg/kg/injection, schedule: Q04DX003 (ip), vehicle: saline with Tween-80) 100 % of control; (endpoint: mean survival time, dose: 1.56 mg/kg/injection, schedule: Q04DX003 (ip), vehicle: saline with Tween-80) 92 % of control; (endpoint: mean survival time, dose: 3.13 mg/kg/injection, schedule: Q04DX003 (ip), vehicle: saline with Tween-80) 95 % of control; (endpoint: mean survival time, dose: 3.13 mg/kg/injection, schedule: Q04DX003 (ip), vehicle: water) 100 % of control; (endpoint: mean survival time, dose: 6.25 mg/kg/injection, schedule: Q04DX003 (ip), vehicle: saline with Tween-80) 97 % of control; (endpoint: mean survival time, dose: 6.25 mg/kg/injection, schedule: Q04DX003 (ip), vehicle: saline) 102 % of control. Further, the T/C runs as follows: (endpoint: mean survival time, dose: 6.25 mg/kg/injection, schedule: Q04DX003 (ip), vehicle: water) 103 % of control; (endpoint: mean survival time, dose: 12.5 mg/kg/injection, schedule: Q04DX003 (ip), vehicle: saline with Tween-80) 94 % of control; (endpoint: mean survival time, dose: 12.5 mg/kg/injection, schedule: Q04DX003 (ip), vehicle: saline) 103 % of control; (endpoint: mean survival time, dose: 12.5 mg/kg/injection, schedule: Q04DX003 (ip), vehicle: water) 101 % of control; (endpoint: mean survival time, dose: 25.0 mg/kg/injection, schedule: Q04DX003 (ip), vehicle: saline) 100 % of control; (endpoint: mean survival time, dose: 25.0 mg/kg/injection, schedule: Q04DX003 (ip), vehicle: water) 91 % of control. In addition, the T/C (endpoint: mean survival time, dose: 50.0 mg/kg/injection, schedule: Q04DX003 (ip), vehicle: saline) is 103 % of control; the T/C (endpoint: mean survival time, dose: 50.0 mg/kg/injection, schedule: Q04DX003 (ip), vehicle: water) is 94 % of control; the T/C under setting [2] was 103 % of control; the T/C (endpoint: mean survival time, dose: 100.0 mg/kg/injection, schedule: Q04DX003 (ip), vehicle: water) was 88 % of control; the T/C under setting [4] was 86 % of control; the T/C (endpoint: mean survival time, dose: 200.0 mg/kg/injection, schedule: Q04DX003 (ip), vehicle: water) was 88 % of control.

For `CN(C)C1CCC(Nc2nc(Nc3cc(Cl)cc(Cl)c3)nc3ccccc23)CC1` (configuration not stated), the T/C is, setting by setting: under setting [6], 102 % of control; under setting [7], 101 % of control; under setting [8], 96 % of control; under setting [9], 103 % of control; (endpoint: mean survival time, dose: 100.0 mg/kg/injection, schedule: Q04DX003 (ip), vehicle: saline with Tween-80) 98 % of control.

Regarding `CC(=O)ON1C(=O)C=CC1=O`, the T/C was 95 % of control (endpoint: mean survival time, dose: 25.0 mg/kg/injection, schedule: Q01DX009 (ip), vehicle: Klucel (hydroxypropylcellulose) (HPC)) and 90 % of control (endpoint: mean survival time, dose: 50.0 mg/kg/injection, schedule: Q01DX009 (ip), vehicle: Klucel (hydroxypropylcellulose) (HPC)).

Turning to `Nc1nc(F)nc2c1ncn2C1OC(CO)C(O)C1O` (configuration not stated), the T/C (endpoint: mean survival time, dose: 100.0 mg/kg/injection, schedule: Q01DX001 (ip), vehicle: other) was 105 % of control; the T/C (endpoint: mean survival time, dose: 111.0 mg/kg/injection, schedule: Q01DX009 (ip), vehicle: saline with Tween-80) was 187 % of control; the T/C (endpoint: mean survival time, dose: 133.0 mg/kg/injection, schedule: Q01DX005 (ip), vehicle: saline with Tween-80) was 154 % of control; the T/C (endpoint: mean survival time, dose: 133.0 mg/kg/injection, schedule: Q01DX009 (ip), vehicle: saline with Tween-80) was 227 % of control and 276 % of control; the T/C (endpoint: mean survival time, dose: 156.0 mg/kg/injection, schedule: Q01DX009 (ip), vehicle: saline with Tween-80) is 393 % of control; the T/C (endpoint: mean survival time, dose: 178.0 mg/kg/injection, schedule: Q01DX005 (ip), vehicle: saline with Tween-80) was 179 % of control. Also, the T/C (endpoint: mean survival time, dose: 178.0 mg/kg/injection, schedule: Q01DX009 (ip), vehicle: saline with Tween-80) is 473 % of control; the T/C (endpoint: mean survival time, dose: 200.0 mg/kg/injection, schedule: Q01DX001 (ip), vehicle: other) was 109 % of control; the T/C under setting [10] was 563 % of control; the T/C (endpoint: mean survival time, dose: 222.0 mg/kg/injection, schedule: Q01DX009 (ip), vehicle: saline with Tween-80) was 333 % of control; the T/C (endpoint: mean survival time, dose: 400.0 mg/kg/injection, schedule: Q01DX001 (ip), vehicle: other) is 105 % of control.

With `O=C(Nc1cc(Cl)c(Cl)cc1Cl)Nc1cc(Cl)ccc1Oc1ccc(Cl)cc1S(=O)(=O)O`, the T/C was 96 % of control (endpoint: mean survival time, dose: 100.0 mg/kg/injection, schedule: Q01DX001 (ip), vehicle: saline with Tween-80) and 98 % of control (endpoint: mean survival time, dose: 200.0 mg/kg/injection, schedule: Q01DX001 (ip), vehicle: saline with Tween-80).

As for `CCCCCC(O)C(C)C(C)C` (configuration not stated), the T/C under setting [8] was 100 % of control, the T/C under setting [11] is 95 % of control and the T/C under setting [10] is 103 % of control.

With `O=C(O)CN1C(=O)CNC12CCCCC2`, the T/C was 102 % of control (endpoint: mean survival time, dose: 100.0 mg/kg/injection, schedule: Q04DX003 (ip), vehicle: other); 88 % of control (endpoint: mean survival time, dose: 200.0 mg/kg/injection, schedule: Q04DX003 (ip), vehicle: other); 104 % of control (endpoint: mean survival time, dose: 400.0 mg/kg/injection, schedule: Q04DX003 (ip), vehicle: other).

Regarding `CCN=C(N)SCCS(=O)(=O)O`, the T/C is, setting by setting: (endpoint: mean survival time, dose: 100.0 mg/kg/injection, schedule: Q01DX005 (ip), vehicle: saline) 103 % of control; under setting [1], 97 % of control; (endpoint: mean survival time, dose: 200.0 mg/kg/injection, schedule: Q01DX005 (ip), vehicle: saline) 106 % of control; under setting [3], 97 % of control; (endpoint: mean survival time, dose: 400.0 mg/kg/injection, schedule: Q01DX005 (ip), vehicle: saline) 95 % of control; under setting [5], 97 % of control.

As to `CCCCCCCCCCCCCCCCN(C)C`, the T/C is, setting by setting: under setting [7], 94 % of control; under setting [9], 95 % of control.

Consider `CCCCC/C=C/C/C=C\CCCCCCCC1=C(O)C(=O)C(OC)=C(OC)C1=O`, for which the T/C was 120 % of control (endpoint: mean survival time, dose: 6.25 mg/kg/injection, schedule: Q01DX009 (ip), vehicle: saline with Tween-80); 106 % of control (endpoint: mean survival time, dose: 12.5 mg/kg/injection, schedule: Q01DX009 (ip), vehicle: saline with Tween-80); 98 % of control under setting [6]; 102 % of control under setting [8]; 102 % of control under setting [11]; 106 % of control under setting [10].

For `Nn1[nH]c(=O)c2nc[nH]c2c1=O`, the T/C reads like this: (endpoint: median survival time, dose: 15.0 mg/kg/injection, schedule: Q01DX005 (ip), vehicle: saline with Tween-80) 103 % of control; (endpoint: median survival time, dose: 30.0 mg/kg/injection, schedule: Q01DX005 (ip), vehicle: saline with Tween-80) 111 % of control; (endpoint: median survival time, dose: 60.0 mg/kg/injection, schedule: Q01DX005 (ip), vehicle: saline with Tween-80) 102 % of control.
